Read-outs that look alike come from different tables or passages of the source.
How the values were obtained:
[1] = biological target: T1, LuxR (Aliivibrio fischeri, UniProt P35327); assay: LuxR agonism reporter assay; assay type: cell-based, Vibrio fischeri
[2] = biological target: T2, LasR (Pseudomonas aeruginosa, UniProt P25084); assay: LasR agonism reporter gene assay, E. coli DH5α; assay type: cell-based
[3] = biological target: T3, TraR (Agrobacterium tumefaciens, UniProt P33905); assay: TraR antagonism reporter gene assay; assay type: cell-based
T3 sequence (P33905 whole entry): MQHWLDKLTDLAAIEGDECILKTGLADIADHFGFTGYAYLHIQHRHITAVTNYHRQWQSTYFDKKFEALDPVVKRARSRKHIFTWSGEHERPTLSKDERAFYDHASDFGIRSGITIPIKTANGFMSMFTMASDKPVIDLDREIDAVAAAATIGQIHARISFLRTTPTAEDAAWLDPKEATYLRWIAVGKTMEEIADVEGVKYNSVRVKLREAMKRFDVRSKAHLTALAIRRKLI

[4] = biological target: T1, LuxR; assay: LuxR antagonism reporter assay; assay type: cell-based, Vibrio fischeri
[5] = biological target: T1, LuxR; conditions: cited from earlier work
[6] = biological target: T3, TraR; conditions: shown previously; cited from earlier work
[7] = biological target: T2, LasR; conditions: read-out: EC50 E. coli LasR; controls; compound alone; ref 5a; cited from earlier work
[8] = biological target: T2, LasR; conditions: shown previously; cited from earlier work
[9] = biological target: T1, LuxR; conditions: shown previously; cited from earlier work

T2 sequence (P25084 whole entry): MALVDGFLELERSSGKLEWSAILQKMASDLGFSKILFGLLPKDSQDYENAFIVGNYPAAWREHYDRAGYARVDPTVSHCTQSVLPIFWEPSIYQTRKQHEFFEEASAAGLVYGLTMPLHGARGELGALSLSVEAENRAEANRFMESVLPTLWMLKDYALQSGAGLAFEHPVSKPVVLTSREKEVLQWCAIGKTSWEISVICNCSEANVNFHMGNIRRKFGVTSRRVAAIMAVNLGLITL
T1 sequence (P35327 whole entry): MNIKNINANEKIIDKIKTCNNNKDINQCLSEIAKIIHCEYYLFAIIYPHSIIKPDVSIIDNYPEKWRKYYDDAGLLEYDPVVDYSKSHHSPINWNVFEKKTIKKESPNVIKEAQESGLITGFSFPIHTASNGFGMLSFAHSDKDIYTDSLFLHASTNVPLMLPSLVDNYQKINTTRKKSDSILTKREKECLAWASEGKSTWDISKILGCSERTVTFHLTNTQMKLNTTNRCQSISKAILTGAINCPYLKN

O=C(Cc1cccc(C(F)(F)F)c1)N[C@H]1CCOC1=O [E3, 3-CF3 PHL]
LuxR activation (in words) ([1]; Library E): failed to activate LuxR

N#Cc1cccc(CC(=O)N[C@H]2CCOC2=O)c1 [E5, 3-CN PHL]
EC50 [1]: 0.3 µM

O=C(Cc1ccc(SC(F)(F)F)cc1)N[C@H]1CCOC1=O [E8, 4-SCF3 PHL]
EC50 [2]: 3.4 µM

O=C(Cc1cc(C(F)(F)F)cc(C(F)(F)F)c1)N[C@H]1CCOC1=O [E9, 3,5-CF3 PHL]
EC50 [1]: 0.37 µM

O=C(COc1ccc([N+](=O)[O-])cc1)N[C@H]1CCOC1=O [E24, 4-NO2 POHL]
IC50 [3]: ~0.25 µM

O=C(CCc1cccc(Br)c1)N[C@H]1CCOC1=O [E31, 3-Br PPHL]
IC50 [4]: ~0.47 µM

O=C(CCc1ccc(I)cc1)N[C@H]1CCOC1=O [E32]
EC50 [2]: > 10 µM

O=C(CCc1cccc(I)c1)N[C@H]1CCOC1=O [E33, 3-I PPHL]
IC50 [4]: ~0.47 µM

O=C(CCc1ccc(C(F)(F)F)cc1)N[C@H]1CCOC1=O [E35, 4-CF3 PHHL]
EC50 [2]: > 10 µM
IC50 [3]: ~0.25 µM

O=C(CCc1cccc(C(F)(F)F)c1)N[C@H]1CCOC1=O [E36, 3-CF3 PPHL]
IC50 [4]: ~0.47 µM

O=C(CCc1ccc2c(c1)OCO2)N[C@H]1CCOC1=O [E39]
EC50 [2]: > 10 µM

O=C(Cc1cccc([N+](=O)[O-])c1)N[C@H]1CCOC1=O [compound 4, 3-NO2 PHL]
LuxR activation threshold level ([5]; previously reported LuxR activator): ~ 100%
EC50 ([5]; read-out: EC50 V. fischeri LuxR, controls, compound alone, ref 5a): 0.35 µM

O=C(COc1ccc(OC(F)(F)F)cc1)N[C@H]1CCOC1=O [compound 6, 4-OCF3 POHL]
TraR inhibition (in words) [6]: strong
EC50 [7]: 6.3 µM
LasR inhibition (in words) [8]: moderate

O=C(CCc1ccccc1)NC1CCOC1=O (centres unmarked) [compound 7, non-substituted PPHL]
TraR inhibition (in words) [6]: minimal activity
LuxR inhibition (in words) [9]: minimal activity
LasR inhibition (in words) [8]: minimal activity

O=C(CCc1ccc(Br)cc1)N[C@H]1CCOC1=O [compound 8, 4-bromo PPHL]
TraR inhibition (in words) [6]: potent inhibitor
LuxR inhibition (in words) [9]: potent inhibitor
LasR inhibition (in words) [8]: potent inhibitor
